Results on 13 compounds are retold here after patent US12286632B2, “Rationally-designed synthetic peptide shuttle agents for delivering polypeptide cargos from an extracellular space to the cytosol and/or nucleus of a target eukaryotic cell, uses thereof, methods and kits relating to same” (Feldan Bio Inc., priority 2016, dated 2025).

The nature of data set [1]: Plasmid DNA (pEGFP-C1) transfection by peptides (% cells with GFP signal, cell viability). Conditions: human, HeLa cells.
Data set [2] has as its system HeLa cells. As to the kind of experiment: GFP-NLS protein transduction assay (flow cytometry: Pos cells %, viability %, relative fluorescence intensity; microscopy). The note with it: Table 10.3b; Protocol B; HeLa; shuttle 50 μM; GFP-NLS 5 μM; 10 seconds. For orientation: In flow cytometry, cells or beads pass a laser one at a time.
The subject of data set [3] is HeLa cells. The note with it: human, 10 s, 50 µM.
A short description of data set [4]: in vitro. Conditions: human, HeLa cells.
The test system of the next data set is T cells. The data set is classed as cell-based, human. The procedure:
Unless otherwise specified, T cells used herein were obtained from healthy human blood collected in heparinized tubes. T cells were isolated using a Ficoll™ technique (Ficoll-Paque™ GE or Lymphoprep™ Stem Cell Technologies). Briefly, blood was mixed with the Ficoll™ solution in conical tubes (50 mL) and centrifuged at 2280 rpm for 20 minutes. Mononuclear cells were harvested and transferred in another conical tube (50 mL) before washing with PBS and centrifugation at 1100 rpm for 10 minutes. Cells were resuspended in 5 mL of PBS containing 20% FBS. Cells were counted and then incubated in a culture medium composed by RPMI advanced (cat: 12633012 ThermoFisher), 10% FBS, 1% Penstrep (15140122 ThermoFisher), 1% L-glutamine (25030081 ThermoFisher) IL-2 30U/ml). Next, T cells were enriched with a Human T cell Enrichment Kit (StemCell #cat: 19051) by negative selection following the manufacturer instructions. The enriched T cells were validated using a specific anti-CD3 antibody (Biolegend #cat: 300438). At this step, collected cells were typically around 99% T cells. T cells were activated by adding IL-2 at 30 U/mL and the anti-CD28 antibody (ThermoFisher #cat: 16-0289-85) in complete medium for 5 days prior to experimentation. The activation of T cell expansion was then double-checked with both anti-CD25 and anti-CD137 antibodies. […]

A short description of data set [5]: in vitro. Conditions: human, HeLa cells; for viability: Cell viability (%) (±St Dev.; n = 3).
Data set [6] in a line: in vitro. The note with it: human, THP-1 cells.
A short description of data set [7]: in vitro.
Data set [8] concerns HeLa cells. The data set is classed as cell-based. The note with it: peptide 5 μM; fold-increase relative to untreated calcein-loaded cells. From the text: Calcein is a membrane-impermeable fluorescent molecule that is readily internalized by cells when administered to the extracellular medium. Its fluorescence is […] and calcein self-quenches at higher concentrations. Once internalized, calcein becomes sequestered at high concentrations in cell endosomes and can be visualized by fluorescence microscopy as a punctate pattern. Following endosomal leakage, calcein is released to the cell cytoplasm and this release can be visualized by fluorescence microscopy as a diffuse pattern.
The cells were allowed to attach by incubating overnight in appropriate growth media, as described in Example 1. The next day, the media in wells was removed and replaced with 50 μL of fresh media without serum containing 62.5 μg/mL (100 μM) of calcein, except for HEK293A (250 μg/mL, 400 μM). […]
Untreated calcein-loaded cells were used as a control to distinguish cells having a baseline of fluorescence due to endosomally-trapped calcein from cells having increased fluorescence due to release of calcein from endosomes. Fluorescence signal means (“mean counts”) were analyzed for endosomal escape quantification. In some cases, the “Mean Factor” was calculated, which corresponds to the fold-increase of the mean counts relative to control (untreated calcein-loaded cells). […] The cellular mortality was monitored with the percentage of cells in the total events scanned. […]

Data set [9] concerns HeLa cells. In kind it is cell-based, Human. Conditions: GFP 5 μM; 5 μM of each peptide; 1 hour; data not shown.
Data set [10] in a line: in vitro. The note with it: human, HCC-78 cells.
Data set [11] in a line: in vitro. Conditions: human, NCI-H196 cells.
The subject of data set [12] is HeLa cells. As to the kind of experiment: FITC-labeled anti-tubulin antibody transduction assay (flow cytometry, cell viability, microscopy). Conditions: FITC-labeled anti-tubulin antibody 0.5 μM, HeLa, 1 hour; shuttle 3.5 μM. How it is done: The delivery and microscopy protocols are described in Example 3.
HeLa cells were cultured and tested in the protein transduction assay described in Example 3.1. […] The cells were subjected to flow cytometry analysis as described in Example 3.3.

The mark [13] stands for this setting: Cell viability (%) (±St. Dev.; n = 3).

Like-named read-outs stand apart in the source and are kept apart here. Ends that are not written are not given here.

By viability is commonly meant a read-out of living cells in per cent, often relative to untreated cells. A lower viability goes with more harm to the cells. The compound “YARAAARQARAWEAKLAKALAKALAKHLAKALAKALKACEA [PTD4-KALA]” registered a viability in [1] of 53.6 ± 3.91%. In the data set with HeLa cells [2], the “Cell viability (%) (±St. Dev.; n = 3)” value was determined as 91.4 ± 3.67%.

“GLFEALLELLESLWELLLEAYARAAARQARA [JST-PTD4]”: the “Cell viability (%) (±St. Dev.; n = 3)” value with HeLa cells [3] was found to be 98.9 ± 0.57%. In the data set “in vitro [4]”, this compound returned a viability of 70.2 ± 5.39%.

With “LLKLWSRLLKLWTQGGSGGGSGRRLKAKRAKA [FSD18]”, the “viability of transduced T cells (FSC/SSC, in words)” value in the data set with T cells is “viability of the transduced T cells was not substantially affected”. This compound showed a viability in “in vitro [5]” of 82.4%. For the same compound, in “in vitro [6]”, the viability at 0.5 min, 2 µM is 97.9 ± 1.73%; the viability at 1 min, 1 µM stood at 95.3 ± 3.11%; the viability at 1 min, 2 µM was determined as 98.6 ± 0.37%; the viability at 0.025 h, 1 µM was 86.5 ± 6.27%. Also, in the data set “in vitro [7]” (NK cells), the viability at 0.25 h, 5 µM stood at 94.9 ± 1.63%; the viability at 0.5 h, 2 µM was found to be 98.3 ± 1%; the viability at 1.5 h, 1 µM turned out to be 99.1 ± 0.08%. Also, in “in vitro [7]” (human, DOHH2 cells), the viability at 0.5 h, 2 µM was found to be 79.8 ± 6.18%; the viability at 0.5 h, 10 µM worked out at 25 ± 2.66%; the viability at 1.5 h, 1 µM turned out to be 62.5 ± 6.17%. Besides, in the data set “in vitro [7]” (human, Jurkat cells), the viability at 0.5 h, 2 µM is 97.4 ± 1.09%; the viability at 0.5 h, 10 µM is 96.6 ± 2.46%; the viability at 1.5 h, 1 µM came to 98.6 ± 0.39%. In the data set “in vitro [7]” (human, KMS-12BM cells), this compound had a viability at 0.5 h, 2 µM of 95.1 ± 3.56%; a viability at 0.5 h, 10 µM of 92.7 ± 4.11%; a viability at 1.5 h, 1 µM of 97.6 ± 1.05%. In the data set “in vitro [7]” (human, REC-1 cells), this compound registered a viability at 0.5 h, 2 µM of 99 ± 0.39%; a viability at 0.5 h, 10 µM of 25 ± 3.17%; a viability at 1.5 h, 1 µM of 96.2 ± 2.53%. In addition, in “in vitro [7]” (mouse, HT2 cells), the viability at 0.5 h, 2 µM is 80.7 ± 7.1%; the viability at 0.5 h, 10 µM was 63.9 ± 5.35%; the viability at 1.5 h, 1 µM stood at 88.3 ± 7.91%.

As for “RQIKIWFQNRRMKWKKC [Penetratin-Cys, reference compound]”, the “Mean Factor” value with HeLa cells [8] is 1.1. Also, the “GFP intracellular delivery (fluorescence microscopy)” value with HeLa cells [9] is listed as “not successfully delivered intracellularly”.

Regarding “KWKLARAFARAIKKLGGSGGGSYARALRRQARTG [FSD10]”, the viability in the data set “in vitro [5]” was found to be 79.8 ± 4.73%. In “in vitro [5]” (setting [13]), the viability at 1 min, 8 µM amounted to 83.4 ± 6.38%; the viability at 1 min, 10 µM was 79.8 ± 6.37%; the viability at 2 min, 5 µM was found to be 55.6 ± 4.28%. In the data set “in vitro [6]”, this compound registered a viability at 0.5 min, 2 µM of 96.3 ± 2.16%; a viability at 1 min, 1 µM of 93.5 ± 5.64%; a viability at 1 min, 2 µM of 85.6 ± 5.22%; a viability at 0.025 h, 1 µM of 78.4 ± 6.15%. The same compound showed a viability in “in vitro [4]” of 72.4 ± 8.61%. In “in vitro [10]”, this compound gave a viability at 1 min, 8 µM of 76.1 ± 6.19%; a viability at 1 min, 10 µM of 63.1 ± 5.27%; a viability at 2 min, 5 µM of 83.1 ± 5.99%. In the data set “in vitro [11]”, this compound gave a viability at 1 min, 8 µM of 81 ± 8.02%; a viability at 1 min, 10 µM of 85.4 ± 7.66%; a viability at 2 min, 5 µM of 83.2 ± 7.51%.

For the compound “RRLSYSRRRFWEAKLAKALAKALAKHLAKALAKALKACEA [SynB3-KALA]”, the “Cell viability (%) (±St. Dev.; n = 3)” value in the data set on HeLa cells [3] came out at 91.1 ± 0.82%.

For “RRRRRRRRRWEAKLAKALAKALAKHLAKALAKALKACEA [9Arg-KALA]”, the “Cell viability (%) (±St. Dev.; n = 3)” value in the data set with HeLa cells [3] was found to be 62.8 ± 5.11%.

For the compound HHHHHHYARAAARQARA [Peptide 6His-PTD4], the viability in data set [1] came to 97.2 ± 1.34%.

“HHHHHHVWKLFWTLLAAIYGRGKARQKRAKRQARG [Peptide F5D25]”: in data set [1], the viability came to 98.2 ± 1.19%.

In the case of “YGRKKRRQRRRC [TAT-Cys, CPD single-domain peptide with C-terminal Cys, reference compound]”, the “Mean Factor” value in the data set with HeLa cells [8] was 1.3. The “GFP intracellular delivery (fluorescence microscopy)” value in the data set with HeLa cells [9] is recorded as “not successfully delivered intracellularly”.

As to HHHHHHFLKIWSRLIKIWTQGRRKGAQAAFR [FSD21], the “viability of transduced T cells (FSC/SSC, in words)” value with T cells is “viability of the transduced T cells was not substantially affected”. In the data set “in vitro [5]”, this compound displayed a viability of 75.6 ± 5.99%. In the data set “in vitro [6]”, this compound yielded a viability at 15 s, 5 µM of 62.5 ± 5.16% and a viability at 0.5 min, 2 µM of 75.6 ± 6.38%. Moreover, the viability in the data set “in vitro [4]” came out at 96.2 ± 1.69%.

Regarding `CC[C@H](C)[C@H](NC(=O)[C@H](CCCCN)NC(=O)[C@H](CCCCN)NC(=O)[C@H](Cc1ccccc1)NC(=O)[C@H](CC(C)C)NC(=O)[C@H](CCCCN)NC(=O)[C@H](Cc1c[nH]c2ccccc12)NC(=O)[C@@H](N)CCCCN)C(=O)NCC(=O)N[C@@H](C)C(=O)N[C@H](C(=O)N[C@@H](CC(C)C)C(=O)N[C@@H](CCCCN)C(=O)N[C@H](C(=O)N[C@@H](CC(C)C)C(=O)N[C@H](C(=O)N[C@H](C(=O)NCC(=O)N[C@@H](CCCNC(=N)N)C(=O)N[C@@H](CCC(N)=O)C(=O)N[C@H](C(=O)N[C@@H](CCCCN)C(=O)N[C@H](C(=O)N[C@@H](Cc1c[nH]c2ccccc12)C(=O)N[C@@H](Cc1ccccc1)C(=O)N[C@@H](CCC(N)=O)C(=O)N[C@@H](CC(N)=O)C(=O)N[C@@H](CCCNC(=N)N)C(=O)N[C@@H](CCCNC(=N)N)C(=O)N[C@@H](CCSC)C(=O)N[C@@H](CCCCN)C(=O)N[C@@H](Cc1c[nH]c2ccccc12)C(=O)N[C@@H](CCCCN)C(=O)N[C@@H](CCCCN)C(=O)N[C@@H](CS)C(=O)O)[C@@H](C)CC)[C@@H](C)CC)[C@@H](C)O)[C@@H](C)O)C(C)C)C(C)C` [CM18-Penetratin-Cys], the “FIG. 19B Cell viability (%) (± St. Dev.; n = 3)” value in the data set with HeLa cells [12] is 73 ± 9.5%.

In the case of YARAAARQARA [PTD4, reference compound], the “Cell viability (%) (±St. Dev.; n = 3)” value in the data set on HeLa cells [3] was determined as 94 ± 4.5%. The compound further registered a viability in “in vitro [4]” of 98.2 ± 0.69%.
